Measured values taken from PMC10821124, “Dimeric 3,5-Bis(benzylidene)-4-piperidones: Tumor-Selective Cytotoxicity and Structure-Activity Relationships” (Medicines, 2024).

How the values were obtained:
Assay type in all cases: cell-based
[1] = tested on: human tumour cell lines HL-60, HSC-2, HSC-3, HSC-4; assay: Cytotoxicity, average over the four human tumour cell lines
Experimental: (§1) Human promyelocytic leukemia [HL-60 (RCB3683)] (purchased from Riken Cell Bank, Tsukuba, Japan) was cultured at 37 °C in RPMI1640 medium (Fujifilm Wako Pure Chemical Co., Osaka, Japan) supplemented with 10% heat (56 °C, 30 min) inactivated FBS (Sigma-Aldrich Inc. St. Louis, MO, USA), 100 U/mL penicillin G, and 100 µg/mL streptomycin sulfate in a humidified 5% CO2 incubator (MCO-170 AICUVD-P, Panasonic Healthcare Co., Ltd., Gunma, Japan). Human oral squamous cell carcinoma (OSCC) cell lines derived from tongue [HSC-2 (RCB1945), HSC-3 (RCB1975), HSC-4 (RCB1902)] (Riken Cell Bank), and human normal oral cells (gingival fibroblasts, HGF; pulp cell, HPC; periodontal ligament fibroblast, HPLF), established from the first premolar extracted tooth in the lower jaw and periodontal tissues of a child, according to the guidelines of Meikai University Ethic Committee (No. A0808), were cultured in DMEM medium (Fujifilm Wako Pure Chemical Co.) supplemented with 10% FBS and antibiotics. The compounds in Series 2–4 were evaluated against HL-60, HSC-2, HSC-3, HSC-4, HGF, HPC, and HPLF cells based on a literature procedure, as described previously. In brief, near confluent cells were incubated in triplicate for 48 h at 37 °C with different concentrations ([…], 6.3, 12.5, 25, 50, 100 µM) of the compounds; then, viable cell numbers were measured using the MTT method. From the dose–response curve, a 50% cytotoxic concentration (CC50) was determined. All samples were dissolved in dimethylsulfoxide (DMSO). The toxicity of DMSO alone was calculated and subtracted. The CC50 values were determined from dose–response curves.

[2] = tested on: human oral squamous cell carcinoma HSC-4 cells; assay: Cytotoxicity, MTT method, HSC-4 cells
Experimental: as §1

[3] = Cytotoxicity, average over the three human normal cells; conditions: human, average of HGF, HPC, HPLF; read-out: AVE CC50, human normal cells
Experimental: as §1

[4] = tested on: human normal cells HGF, HPC, HPLF; assay: as above; conditions: average of HGF, read-out: AVE CC50, human normal cells
Experimental: as §1

[5] = tested on: human oral squamous cell carcinoma HSC-2 cells; assay: Cytotoxicity, MTT method, HSC-2 cells
Experimental: as §1

[6] = tested on: human promyelocytic leukemia HL-60 cells; assay: Cytotoxicity, MTT method, HL-60 cells
Experimental: as §1

[7] = tested on: human gingival fibroblasts (HGF); assay: Cytotoxicity, MTT method, HGF non-malignant cells; conditions: 48 h, mean ± SD
Experimental: as §1

human pulp cells (HPC) = assay: Cytotoxicity, MTT method, HPC non-malignant cells; conditions: 48 h, mean ± SD
Experimental: as §1

[8] = tested on: human periodontal ligament fibroblasts (HPLF); assay: Cytotoxicity, MTT method, HPLF non-malignant cells; conditions: 48 h, mean ± SD
Experimental: as §1

[9] = tested on: human oral squamous cell carcinoma HSC-3 cells; assay: Cytotoxicity, MTT method, HSC-3 cells
Experimental: as §1

**Q.** With `N[C@@H](Cc1ccc(N(CCCl)CCCl)cc1)C(=O)O` [Melphalan, reference compound] as the compound, how does the CC50 ([1]; Homo sapiens, read-out: AVE. CC50, human tumour cell lines) read?
**A.** 26.2 µM

**Q.** What about the “AVE SI” value ([1]; average of the four SI values) of the same compound?
**A.** 21.0

**Q.** What about the CC50 ([2]; Homo sapiens, HSC-4, 48 h, read-out: CC50 HSC-4) of the same compound?
**A.** 46 ± 6 µM

**Q.** And the “SI (selectivity index) HSC-4” value ([2]; average CC50 non-malignant cells / CC50 HSC-4)?
**A.** 1.46

**Q.** What about the CC50 at 48 h [3] of the same compound?
**A.** > 50 µM

**Q.** What about the CC50 [4] of the same compound?
**A.** 67.3 µM

**Q.** And the CC50 ([5]; Homo sapiens, HSC-2, 48 h, read-out: CC50 HSC-2)?
**A.** 12 ± 2.7 µM

**Q.** What about the “SI (selectivity index) HSC-2” value ([5]; average CC50 non-malignant cells / CC50 HSC-2) of the same compound?
**A.** 5.61

**Q.** What about the CC50 ([6]; Homo sapiens, HL-60, 48 h, read-out: CC50 HL-60) of the same compound?
**A.** 0.89 ± 0.17 µM

**Q.** What about the “SI (selectivity index) HL-60” value ([6]; average CC50 non-malignant cells / CC50 HL-60) of the same compound?
**A.** 75.6

**Q.** What about the CC50 [7] of the same compound?
**A.** 73 ± 15 µM

**Q.** What about the CC50 (human pulp cells (HPC)) of the same compound?
**A.** 37 ± 7.3 µM

**Q.** And the CC50 [8]?
**A.** 92 ± 7.8 µM

**Q.** What about the CC50 ([9]; Homo sapiens, HSC-3, 48 h, read-out: CC50 HSC-3) of the same compound?
**A.** 46 ± 31 µM

**Q.** What about the “SI (selectivity index) HSC-3” value ([9]; average CC50 non-malignant cells / CC50 HSC-3) of the same compound?
**A.** 1.46
